Measurements from patent publication US7666670B2, “Animal model for the fast identification of pharmaceutical active compounds in vivo” (Janssen Pharmaceutica N.V., priority 2003, dated 2010).
Where “and” joins values, the source holds several entries; their conditions need not be identical. Equal entries are not always repeated. *1 amine or outer side, *2 acyl side, *3 side chain or, on linkers, in order; H or OH if unused. Where a SMILES comes first, the peptide text is derived from it. Bridges are numbered along the chain shown (N, C = ends). Roman numbers before positions name the chains, in order. [ ]: non-standard residue; d: D form. Actinocin(9to1) = Cc1c2oc3c(C)ccc(C(=O)[*:1])c3nc-2c(C(=O)[*:2])c(N)c1=O; NMeV = CN[C@H](C(=O)O)C(C)C; Sar = CNCC(=O)O

Experiments:
[1] = tested on: p21 1300 bp promoter fragment; test: Induction of p21 1300 bp promoter fragment (ZsGreen fluorescence) in pGL3-basic-ZsGreen-1300 transfected A2780 clones; format: cell-based, human; conditions: for Activation of the 1300 bp fragment of the p21 promoter by DNA damaging agents: dose response, clones 1 and 5 (FIG. 1); for Activation of the 1300 bp fragment of the p21 promoter by DNA damaging agents / Fold induction (fluorescence after induction divided by fluorescence of DMSO treated cells): 24 h; for Fold induction (fluorescence after induction divided by fluorescence of DMSO treated cells): Fluoroskan; for Fold induction: first screen of 80 clones, the two clones measurable with Fluoroskan
Method: A2780 cells were plated into a 6-well plate at a density of 2×10^5 cells, incubated for 24 hours, and transfected with 2 ug of pGL3-basic-ZsGreen-1300 and 0.2 ug of pSV2neo vector by using Lipofectamine 2000 (Invitrogen, Brussels, Belgium) as described by manufacturer. The transfected cells were selected for 10 days with G418 (Gibco-BRL, Gaithersburg, Md.) and single cell suspensions were grown. After three weeks, 80 single clones were obtained.
The A2780 transfected pool and the selected 80 clones were expanded and seeded at 10000 cells per well into 96-well plates. 24 hours after seeding, the cells were treated for an additional 24 hours with targeted compounds (affecting sp1 sites in the proximal p21 promoter region) or DNA damaging agents (affecting p53 responsive elements). Subsequently, cells were fixed with 4% PFA for 30′ and counterstained with Hoechst dye. The p21 promoter activation leading to ZsGreen production and thus fluorescence, was monitored by the Ascent Fluoroskan (Thermo Labsystems, Brussels, Belgium) and by fluorescence microscope (Zeiss).

tumor = conditions: PK/PD studies; cited from earlier work
[2] = tested on: pGL3-basic-ZsGreen-1300 transfected A2780 xenograft; test: In vivo xenograft fluorescence, Automated Whole Body Imaging System; parameters: species or system nude mice
Method: The selected clone was injected subcutaneous (10^7 cells/200 μl) into the flank of nude mice and a calliper measurable tumor was obtained after 12 days. From day 12 on, animals were orally dosed daily during 6 days with solvent, 20 mpk Mitsui (a.k.a. MS-275—Shering—Registry Number 209783-80-2) or 40 mpk compound X (10, 10 and 4 animals respectively). Tumors were evaluated for fluorescence by the in-house developed Automated Whole Body Imaging System (Fluorescent stereomicroscope type Olympus® SZX12 equipped with a GFP filter and coupled to a CCD camera type JAI® CV-M90 controlled by a software package based on the IMAQ Vision Software from National Instruments®).

p53RE_tk in A2780 cells = test: Induction of p53RE_tk activity (ZsGreen fluorescence) in transfected A2780 clones; format: cell-based, human; conditions: 24 h, Fluoroskan; for Fold induction (fluorescence after induction divided by fluorescence of DMSO treated cells): A2780 clone 36, 10 ng/ml
Method: (§1) A2780 cells and HCT116 cells were plated into a 6-well plate at a density of 4×10^5 cells, incubated for 24 hours, and transfected with 2 ug of p53RE_TK/pGL3-basic-ZsGreen and 0.2 ug of pMC1-neo-Poly A vector by using Lipofectamine and Plus Reagent (Invitrogen, Brussels, Belgium) as described by manufacturer. The transfected cells were selected for 16 days with G418 (Gibco-BRL, Gaithersburg, Md.) and single cell suspensions were grown. After three weeks, 60 single clones were obtained from the transfected HCT116 cells and 40 single clones were obtained from the transfected A2780 cells.
(§2) The A2780 and the HCT116 transfected pool and the selected clones were expanded and seeded at 20000 cells per well into 96-well plates. 24 hours after seeding, the cells were treated for an additional 24 hours with DNA damaging agents (affecting p53 responsive elements). The p53RE_tk activation leading to ZsGreen production and thus fluorescence, was monitored by the Ascent Fluoroskan (Thermo Labsystems, Brussels, Belgium) and by fluorescence microscope (Zeiss).

p53RE_tk in HCT116 cells = test: Induction of p53RE_tk activity (ZsGreen fluorescence) in transfected HCT116 clones; format: cell-based; conditions: 24 h
Method: as §1, §2

[3] = 20 mpk orally daily for 6 days from day 12, clone 1 and 5 xenograft, nude mice

COc1cccc2c1C(=O)c1c(O)c3c(c(O)c1C2=O)C[C@@](O)(C(=O)CO)C[C@@H]3O[C@H]1C[C@H](N)[C@H](O)[C@H](C)O1 [Doxorubicin]
Activation of the 1300 bp fragment of the p21 promoter by DNA damaging agents [1]: not able to activate | Activation of the 1300 bp fragment of the p21 promoter by DNA damaging agents ([1]; listed as doxorubicin): non-responsivness

CC(/C=C/C(=O)NO)=C\[C@@H](C)C(=O)c1ccc(N(C)C)cc1 [TSA, trichostatin A]
Fold induction (fluorescence after induction divided by fluorescence of DMSO treated cells) ([1]; clone 1, 10^−7M): 5 fold | Fold induction ([1]; 10^−7, 24 h): 5 fold | ZsGreen production in pGL3-basic-ZsGreen-1300 transfected A2780 cells in vitro [1]: induce ZsGreen production

Nc1ccccc1NC(=O)c1ccc(CNC(=O)OCc2cccnc2)cc1 [Mitsui]
Compound reaches the tumor (tumor): can reach the tumor | Concentration reached in the tumor (tumor): high enough to stop the tumor from growing | Time after administration of the first dose at which induction of ZsGreen was very clear [2, 3]: 3 days | Time after starting the treatment at which ZsGreen induction reached a plateau [2, 3]: 5 days | Basal ZsGreen expression and induction, detection by Automated Whole Body Imaging System ([2]; 20 mpk, clone 2 and 3 xenograft, nude mice): too low | Induction of fluorescence in the xenograft ([2]; after 4 days of treatment): induces fluorescence | Fold induction (fluorescence after induction divided by fluorescence of DMSO treated cells) ([1]; clone 1, 10^−6M): 2 fold and 1.8 fold | Fold induction ([1]; 10^−6, 24 h): 1.2-1.5 fold | ZsGreen production in pGL3-basic-ZsGreen-1300 transfected A2780 cells in vitro [1]: induce ZsGreen production

Cc1c2oc3c(C)ccc(C(=O)N[C@@H]4C(=O)N[C@H](C(C)C)C(=O)N5CCC[C@H]5C(=O)N(C)CC(=O)N(C)[C@@H](C(C)C)C(=O)O[C@@H]4C)c3nc-2c(C(=O)N[C@@H]2C(=O)N[C@H](C(C)C)C(=O)N3CCC[C@H]3C(=O)N(C)CC(=O)N(C)[C@@H](C(C)C)C(=O)O[C@@H]2C)c(N)c1=O [actinomycin D] (I: T[dV]P[Sar][NMeV] / II: T[dV]P[Sar][NMeV]; ester I:1-I:C, II:1-II:C; linker I:N-II:N via Actinocin(9to1))
Fold induction (fluorescence after induction divided by fluorescence of DMSO treated cells) (p53RE_tk in A2780 cells): 2 fold | Fold induction (fluorescence after induction divided by fluorescence of DMSO treated cells) (p53RE_tk in A2780 cells; listed as actinomycinD): strong induction factor | Induction of fluorescence (p53RE_tk in A2780 cells; the 2 responding A2780 clones, 10 ng/ml): at least a two fold induction | Induction of fluorescence (p53RE_tk in HCT116 cells; HCT116 clones 5 and 36, 10 ng/ml): strong induction factor | Induction of fluorescence (p53RE_tk in HCT116 cells; the 6 responding HCT116 clones, 10 ng/ml, Fluoroskan): at least a two fold induction

CC[C@@]1(O)C(=O)OCc2c1cc1n(c2=O)Cc2cc3ccccc3nc2-1 [Camptothecin]
Activation of the 1300 bp fragment of the p21 promoter by DNA damaging agents [1]: not able to activate | Activation of the 1300 bp fragment of the p21 promoter by DNA damaging agents ([1]; listed as Campthotecin): non-responsivness

Bleomycin
Activation of the 1300 bp fragment of the p21 promoter by DNA damaging agents [1]: not able to activate | Activation of the 1300 bp fragment of the p21 promoter by DNA damaging agents ([1]; listed as bleomycin): non-responsivness

O=C(CCCCCCC(=O)Nc1ccccc1)NO [SAHA, suberoylanilide hydroxamic acid]
ZsGreen production in pGL3-basic-ZsGreen-1300 transfected A2780 cells in vitro [1]: induce ZsGreen production
